Measured values: patent US12054477B2, “Prodrug of pyrrolidone derivatives as glucokinase activator” (HUA MEDICINE (SHANGHAI) LTD., priority 2021, dated 2024)
Like-named read-outs stand apart in the source and are kept apart here.

Legend:
[1] = Simulated metabolic test of compounds in Human Intestine S9; format: in vitro ADME; details: for Remaining of Test Compound (%): HIS9 0.5 mg/mL, 37° C.
Description: Preparation of Phosphate Buffer (PB): Dissolve 73.21 g K2TIPO4·3H2O (AR grade) and 10.78 g KH2PO4 (AR grade) in ultra-pure water to make the final volume to 4000 mL and the final concentration to 100 mM. The pH of the final test solution was adjusted to pH 7.40±0.10 with H3PO4/KOH.
An Apricot automation workstation was used to add 50 μL/well of HIS9 solution to the corresponding wells of all reaction plates (blank, T0, T5, T15, T30, T45, T60).
Using an Apricot automation workstation, 2 μL/well of test compound working solution was added to the corresponding wells of all 96-well reaction plates except the blank (T0, T5, T15, T30, T45, T60).
An Apricot automation workstation was used to add 48 μL/well of PB to the corresponding wells of every reaction plate (Blank, T0, T5, T15, T30, T45, T60) to start the reaction.
The reaction plates were incubated at 37° C., and timer was started. An Apricot automation workstation was used to add 300 μL/well of stop solution (cold acetonitrile containing 200 ng/mL tolbutamide (internal standard)) to the corresponding wells of each reaction plate at its appropriate end time point to terminate the reaction.
Each plate was sealed and shaken for 10 minutes. After shaking, each plate was centrifuged at 4000 rpm and 4° C. for 20 minutes. After centrifugation, 100 μL of supernatant was transferred from each reaction plate to its corresponding bioanaylsis plate, and mixed well with 300 μL ultra-pure water.

[2] = Stability test of compounds in Simulated Gastric Fluid (SGF); format: in vitro ADME; details: for Stability in SGF (in words): 24 hours; for Remaining of Test Compound (%): SGF pH about 1.20, 37° C., 2 μM
Description: The pH of the test solution was about 1.20±0.05.
(§3) Then 200 μL of supernatant was pipetted and mixed completely again with 400 μL of cold acetonitrile containing 200 ng/mL tolbutamide (internal standard). • 7) All samples were centrifuged at 4000 rpm, 4° C. for 20 min. • 8) 60 μL of supernatant was pipetted and mixed with 180 μL of ultra-pure water, and the mixture was mixed completely for LC-MS/MS analysis.

C57BL/6J mice [3] = experiment: Plasma insulin levels during OGTT; format: in vivo; details: for Insulin levels at 0 min vs vehicle control group and HMS5552-40 mg/kg group: 0 min (pre-glucose); for Insulin levels at 15 min vs vehicle control group / Insulin levels at 15 min vs corresponding groups of HMS5552: 15 min post-glucose
Description: (§1) 104 C57BL/6J mice were randomly divided into 13 groups according to body weight, 8 mice per group. The first group were administered with vehicle solvent (5 mL/kg, PO) as the control group, other groups were administered with corresponding concentration of test compounds (5 mL/kg, PO). […] The oral glucose tolerance test (OGTT) was performed 1 hour after administration of test compounds. Blood glucose (BG) were measured at −60 min (pre-dose), 0 min (pre-glucose), 15 min, 30 min, 60 min and 120 min after glucose treatment. Blood samples (40 μl) were collected from tail veins at 0 min (pre-glucose), and 15 min (post-glucose) to separate plasma for insulin detection.
(§2) All data was transferred into an Excel spreadsheet. Blood glucose was expressed in mg/dL. All values were expressed as Mean±SEM. The significance of the differences between groups were evaluated by one-way ANOVA or two-way ANOVA followed by Dunnett's multiple comparisons test or Tukey's multiple comparisons test using GraphPad Prism 8. A p value of less than 0.05 is considered statistically significant.

Caco-2 cells = experiment: Bi-directional permeability test using Caco-2 cells; details: for The average Apparent Permeability Papp A→B: 2 hours, pH 7.40
[4] = Pharmacokinetic studies in male SD rats (IV bolus and gavage); details: rat, in vivo
Description: Samples were placed on wet ice until centrifugation (within 30 min). […] Supernatant plasma was pipetted, then quickly frozen over dry ice and kept at −60° C. or lower temperature until LC-MS/MS analysis.

C57BL/6J mice [5] = experiment: Oral glucose tolerance test (OGTT), blood glucose; format: in vivo; details: for AUC0-120min of blood glucose vs vehicle control group / BG values after glucose treatment vs HMS5552-40 mg/kg group / BG values after glucose treatment vs vehicle control group / AUC0-120min of blood glucose vs corresponding groups of HMS5552: OGTT; for AUC0-120min of blood glucose vs vehicle control group: all low, middle, high dose groups; for AUC0-120min of blood glucose vs vehicle control group / BG values after glucose treatment vs HMS5552-40 mg/kg group / BG values after glucose treatment vs vehicle control group / AUC0-120min of blood glucose vs corresponding groups of HMS5552 / BG values at 0 min (pre-glucose) vs vehicle control group: PO; for BG values after glucose treatment vs HMS5552-40 mg/kg group: high dose group (Compound 3 49.1, Compound 6 46.1, Compound 7 48.6 mg/kg); for BG values after glucose treatment vs vehicle control group: high dose group (HMS5552 40 mg/kg; Compound 3 49.1 mg/kg); for AUC0-120min of blood glucose vs corresponding groups of HMS5552: middle and high dose levels (equimolar to 15 and 40 mg/kg HMS5552); for BG values at 0 min (pre-glucose) vs vehicle control group: all treatment groups, 1 hour after administration
Description: as §1, §2

[6] = for Remaining of Test Compound (%): SIF pH about 6.80, 37° C., 2 μM
Description: Preparation of Simulated Intestinal Fluid (SIF): Dissolve 0.136 g KH2PO4 and 0.2 g pancreatin with water and make up the final volume to 20 mL. The pH of the test solution was about 6.80±0.05.
as §3

[7] = high dose (Compound 3 49.1, Compound 6 46.1, Compound 7 48.6 mg/kg)
[8] = middle dose (Compound 3 18.4, Compound 7 18.2 mg/kg)
[9] = Caco-2, Compound 3 concentration 2.00 μM
[10] = Caco-2, Compound 3 concentration 10.0 μM
[11] = Caco-2, Compound 3 concentration 30.0 μM
[12] = high dose (Compound 6 46.1, Compound 7 48.6 mg/kg)

Row | Structure (SMILES) | Metabolism in human intestinal S9 (in words) ([1]; HIS9) | Remaining of Test Compound (%) ([1]; time point 5 min) | Remaining of Test Compound (%) ([1]; time point 15 min) | Remaining of Test Compound (%) ([1]; time point 30 min) | Remaining of Test Compound (%) ([1]; time point 45 min) | Remaining of Test Compound (%) ([1]; time point 60 min) | Stability in SGF (in words) [2] | Insulin levels at 0 min vs vehicle control group and HMS5552-40 mg/kg group (C57BL/6J mice [3]; [7]) | Insulin levels at 15 min vs vehicle control group (C57BL/6J mice [3]; [7]) | Insulin levels at 15 min vs vehicle control group (C57BL/6J mice [3]; [8]) | Metabolism after intravenous injection (in words) [4] | Insulin secretion and glucose-lowering effect as compared to HMS5552 (in words) (C57BL/6J mice [5]) | AUC0-120min of blood glucose vs vehicle control group (C57BL/6J mice [5]) | BG values after glucose treatment vs HMS5552-40 mg/kg group (C57BL/6J mice [5]) | BG values after glucose treatment vs vehicle control group (C57BL/6J mice [5]) | AUC0-120min of blood glucose vs corresponding groups of HMS5552 (C57BL/6J mice [5]) | BG values at 0 min (pre-glucose) vs vehicle control group (C57BL/6J mice [5]) | Degradation in SIF (in words) [6] | Insulin levels at 15 min vs corresponding groups of HMS5552 (C57BL/6J mice [3]; [12]) | other results
1 | CC(C)C[C@@H](C(=O)Nc1ccn(C[C@@H](O)COC(=O)c2cccnc2)n1)N1CC(Oc2ccccc2Cl)=CC1=O [Compound 3] | well metabolized in human intestinal S9 | 0 | 0 | 0 | 0 | 0 | stable in SGF for 24 hours | significantly higher than the vehicle control group and HMS5552-40 mg/kg group at 0 min | significantly higher than the vehicle control group at 15 min | significantly higher than the vehicle control group at 15 min | metabolized very rapidly in rats by intravenous injection | increased insulin secretion and greater glucose-lowering effect as compared to HMS5552 | significantly lower than the vehicle control group, with dose-response relationship | significantly lower than HMS5552-40 mg/kg group at 30 min, 60 min, and 120 min | significantly lower than the vehicle control group at 15 min, 30 min, 60 min, and 120 min | significantly lower than the corresponding groups of HMS5552 (P<0.01) | overall lower than the vehicle control group, with dose-response relationship | extensively degraded in SIF |  | Time within which completely metabolized and converted into parent drug HMS5552 ([1]; HIS9): ≤ 5 min; Insulin levels at 15 min vs corresponding groups of HMS5552 (C57BL/6J mice [3]; middle dose (Compound 3 18.4 mg/kg)): significantly higher than the corresponding groups of HMS5552 at 15 min; Average Recovery Rate (%) A→B (Caco-2 cells; [9]): 52.9%; Average Recovery Rate (%) B→A (Caco-2 cells; [9]): 87.1%; The average Apparent Permeability Papp A→B (Caco-2 cells; [9]): 0.02977 10^−6 cm/s; Average Recovery Rate (%) A→B (Caco-2 cells; [10]): 37.5%; Average Recovery Rate (%) B→A (Caco-2 cells; [10]): 81.6%; The average Apparent Permeability Papp A→B (Caco-2 cells; [10]): 0.03187 10^−6 cm/s; Average Recovery Rate (%) B→A (Caco-2 cells; [11]): 82.2%; The average Apparent Permeability Papp A→B (Caco-2 cells; [11]): 0.04322 10^−6 cm/s; clearance ([4]; male SD rats, IV bolus 10 mg/kg, analyte prodrug): 290 mL/min/kg; Tmax ([4]; male SD rats, PO 30 mg/kg, analyte prodrug, read-out: Tmax (median)): 15 min
2 | CC(C)C[C@@H](C(=O)Nc1ccn(C[C@@H](O)COC(=O)[C@H](C)N)n1)N1CC(Oc2ccccc2Cl)=CC1=O [Compound 6] |  |  |  |  |  |  |  | significantly higher than the vehicle control group and HMS5552-40 mg/kg group at 0 min | significantly higher than the vehicle control group at 15 min |  |  | increased insulin secretion and greater glucose-lowering effect as compared to HMS5552 | significantly lower than the vehicle control group, with dose-response relationship | significantly lower than HMS5552-40 mg/kg group at 15 min, 30 min, 60 min, and 120 min |  | significantly lower than the corresponding groups of HMS5552 (P<0.01) | overall lower than the vehicle control group, with dose-response relationship |  | significantly higher than the corresponding groups of HMS5552 at 15 min | 
3 | CC(C)C[C@@H](C(=O)Nc1ccn(C[C@@H](O)COC(=O)[C@@H](N)C(C)C)n1)N1CC(Oc2ccccc2Cl)=CC1=O [Compound 7] | well metabolized in human intestinal S9 | 30.7 | 18.8 | 7.2 | 3.9 | 2.7 | stable in SGF for 24 hours | significantly higher than the vehicle control group and HMS5552-40 mg/kg group at 0 min | significantly higher than the vehicle control group at 15 min | significantly higher than the vehicle control group at 15 min | metabolized very rapidly in rats by intravenous injection | increased insulin secretion and greater glucose-lowering effect as compared to HMS5552 | significantly lower than the vehicle control group, with dose-response relationship | significantly lower than HMS5552-40 mg/kg group at 15 min, 30 min, 60 min, and 120 min |  | significantly lower than the corresponding groups of HMS5552 (P<0.01) | overall lower than the vehicle control group, with dose-response relationship | extensively degraded in SIF | significantly higher than the corresponding groups of HMS5552 at 15 min | Remaining of Test Compound (%) ([1]; time point 0 min): 100%; Remaining of Test Compound (%) ([2]; time point 0 hr): 100.00%; Remaining of Test Compound (%) ([2]; time point 1 hr): 103.14%; Remaining of Test Compound (%) ([2]; time point 2 hr): 104.44%; Remaining of Test Compound (%) ([2]; time point 6 hr): 102.68%; Remaining of Test Compound (%) ([2]; time point 24 hr): 108.07%; Exposures (Cmax, Cmax ratio, AUC, AUC ratio) when administered orally vs parent drug (in words) ([4]; male, SD, po): comparable to the parent drug HIMS5552; Remaining of Test Compound (%) ([6]; time point 0 hr): 100.00%; Remaining of Test Compound (%) ([6]; time point 1 hr): 25.13%; Remaining of Test Compound (%) ([6]; time point 2 hr): 3.50%; Remaining of Test Compound (%) ([6]; time point 6 hr): 4.88%; Remaining of Test Compound (%) ([6]; time point 24 hr): 0.00%
4 | CC(C)C[C@@H](C(=O)Nc1ccn(C[C@@H](O)CO)n1)N1CC(Oc2ccccc2Cl)=CC1=O [HMS5552, (S)-2-[4-(2-chloro-phenoxy)-2-oxo-2,5-dihydro-pyrrol-1-yl]-4-methyl-pentanoic acid [1-((R)-2,3-dihydroxy-propyl)-1H-pyrazol-3-yl]-amide, reference compound] |  |  |  |  |  |  |  |  |  |  |  |  | significantly lower than the vehicle control group, with dose-response relationship |  | significantly lower than the vehicle control group at 30 min, 60 min and 120 min |  | overall lower than the vehicle control group, with dose-response relationship |  |  | Insulin levels vs vehicle control group (C57BL/6J mice [3]; HMS5552 groups, 0 min and 15 min): slightly higher than the vehicle control group at 0 min and 15 min, without significant difference
